Test [1] has as its system patient-derived MLL cells (MLL-AF9). In words: Leukemia humanized mouse (MLL-AF9), human leukemia cells in peripheral blood. The class given is in vivo. To be noted: MLL-AF9 cases in NSG mice; dexamethasone 70 mg/kg IP daily and/or RK-20449 30 mg/kg IP BID; FIG. 1-3. The text has this:
(§1) NOD. Cg-Prkdc^scid Il2rg^tmlWjl/Sz (NOD/SCID/IL2rg^null, NSG) mice were developed by subjecting a complete null mutation in the Il2rg gene locus to back cross with NOD. Cg-Prkdc^scid (NOD/SCID) lineage, in the Jackson Laboratory (Bar Harbor, Me. state, USA) (Shultz, L. D. et al., Multiple defects in innate and adaptive immunologic function in NOD/LtSz-scid mouse. J. Immunol. 154, 180-191 (1995)). The mice were raised by feeding irradiated food and acidified water in the animal facilities of RIKEN and the Jackson Laboratory in accordance with the guideline established by the Institutional Animal Committees and maintained under bacterial flora specified.
(§2) NSG mice in the neonatal period were exposed to radiation (1.5 G) and then patient-derived MLL cells (MLL-AF9) were transplanted to the mice. After the presence of the human leukemia cells in the peripheral blood was confirmed by flow cytometry based on the presence of hCD45+CD19+, treatment of the mice (leukemia humanized mice) with dexamethasone (70 mg/kg IP daily) and/or RK-20449 (30 mg/kg IP BID, twice a day) or both was started.

Test [2] relates to MLL cells (MLL-AF9 ALL cell) in the bone marrow. The test is described as follows: Leukemia humanized mouse (MLL-AF9), human leukemia cells in bone marrow (flow cytometry, hCD45/DAB staining). The class given is in vivo. To be noted: MLL-AF9 case; after treatment; FIG. 4.
Text: as §1, §2
After the treatment, the mice were euthanized and the appearance frequency of human leukemia cells in the bone marrow was determined by flow cytometry. At the same time, one of the femur bones was fixed in PFA and […]-thin sections were prepared. […]

Test [3] has as its system MLL cells (MLL-AF9 ALL cells). In words: Secondary transplantation of MLL cells remaining after treatment into neonatal NSG mice. To be noted: cells taken from treated primary recipient, FIG. 7. The class given is in vivo, mouse. An excerpt: Finally, human leukemia cells remaining in the bone marrow were purified by sorting and transplanted to neonatal NSG mice (secondary transplantation).
MLL cells (MLL-AF9 ALL cells) were transplanted (primary transplant) to an immunodeficient mouse and a treatment with a combination of dexamethasone and RK-20449 was applied. Thereafter, MLL cells were taken from the mouse and transplanted to another immunodeficient mouse (secondary transplantation). The results are shown in the graphs as FIG. 7. The cases treated with dexamethasone alone and RK-20449 alone were used as controls (for comparison).

“Also recorded” adds a separate entry of the source.

In the case of `CN1CCN([C@H]2CC[C@H](n3cc(-c4ccc(Oc5ccccc5)cc4)c4c(N)ncnc43)CC2)CC1` [RK-20449, 7-[trans-4-(4-methyl-1-piperazinyl)cyclohexyl]-5-(4-phenoxyphenyl)-7H-pyrrolo[2,3-d]pyrimidin-4-amine], the “chimerism (percentage) of human leukemia cells in the mouse peripheral blood” value in test [1] is “not easy to eradicate MLL by single use; also recorded: impossible to expect complete cure of MLL”. Besides, the “medicinal effect in the bone marrow (appearance frequency of human leukemia cells, flow cytometry)” value in test [2] was “A sufficient therapeutic effect was not obtained”. For the same molecule, in test [3], the “MLL cells in secondary transplantation recipient (proliferation after transplantation)” value is on record as “MLL cells were present in significantly high percentages”.
